In US8613941B1, “Synergistic antimicrobial composition” (Dow Global Technologies LLC, priority 2012, dated 2013):

What was measured:
oilfield SRB consortium = assay: Biocidal efficacy against anaerobic bacteria for a high temperature and sulfide-rich environment; type: cell-based, sulfate reducing bacteria (SRB); conditions: alone or in the blend, 80° C., 7 days, 10 ppm sulfide ion, 10^4 to 10^5 CFU/mL
Description: Inside an anaerobic chamber (BACTRON IV), biocides solutions were challenged with 10^4 to 10^5 CFU/mL of an oilfield SRB consortium and 10 ppm sulfide ion (added in the form of sodium sulfide). The biocide solutions were then incubated at 80° C. under anaerobic condition for 7 days. Then the biocidal efficacy was evaluated against the field SRB consortium. The biocidal efficacy was determined by the biocide dosage required for 99.999% bacterial reduction. Synergy Index was then calculated. Table 2 summarizes the efficacy of each biocide and their blends, and the Synergy Index* of each combination.

[1] = tested on: oil field isolated anaerobic consortium, mainly SRB; assay: Biocidal efficacy (MBC) of THPS, Tris Nitro and combination against sulfate reducing bacteria; type: cell-based, sulfate reducing bacteria (SRB); conditions: alone or in the blend, minimum tested biocide concentration for bacteria kill, 40° C., 24 hours, 10^6 to 10^7 CFU/mL
Description: Inside an anaerobic chamber (BACTRON anaerobic chamber), a deaerated sterile salt solution (3.1183 g of NaCl, 1.3082 mg of NaHCO3, 47.70 mg of KCl, 72.00 mg of CaCl2, 54.49 mg of MgSO4, 172.28 mg of Na2SO4, 43.92 mg of Na2CO3 in 1 L water) was contaminated with an oil field isolated anaerobic consortium, mainly SRB, at final bacterial concentrations of 10^6 to 10^7 CFU/mL. The aliquots of this contaminated water were then treated with THPS and Tris Nitro, or the THPS/Tris Nitro combination at different active concentration levels. After the mixtures were incubated at 40° C. for 24 hours, the biocidal efficacy was determined by minimum tested biocide concentration for bacteria kill in the aliquots (MBC). Table 1 summarizes the efficacy of each biocide and their blends, and the Synergy Index* of each combination.

Molecule | Concentration (active ppm) required for 99.999% bacterial reduction, Tris Nitro (oilfield SRB consortium; Tris Nitro concentration) [active ppm] | Average MBC (active ppm), Tris Nitro ([1]; Tris Nitro concentration) [active ppm] | Concentration (active ppm) required for 99.999% bacterial reduction, THPS (oilfield SRB consortium; THPS concentration) [active ppm] | Average MBC (active ppm), THPS ([1]; THPS concentration) [active ppm]
O=[N+]([O-])C(CO)(CO)CO [0:1, tris(hydroxymethyl)nitromethane] | 360 | 46.1 |  | 
tetrakis(hydroxymethyl)phosphonium sulfate [1:0] |  |  | 360.0 | 6.1
